Data: PubChem BioAssay (NCI)
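Grown in 96-well plates, cells were treated for 48 hours with each compound at five concentrations. Insufficient inhibition: endpoint recorded as highest concentration tested. GI50: concentration for 50% inhibition of growth. TGI: concentration producing complete growth inhibition.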

Columns and labels:
Assay in all cases: DTP human tumour cell line panel, 48 h
CCRF-CEM leukemia = system: CCRF-CEM leukemia
SF-295 CNS = system: SF-295 CNS
HCT-15 colon = system: HCT-15 colon
OVCAR-4 ovarian = system: OVCAR-4 ovarian
MALME-3M melanoma = system: MALME-3M melanoma
U251 CNS = system: U251 CNS
HL-60(TB) leukemia = system: HL-60(TB) leukemia
MOLT-4 leukemia = system: MOLT-4 leukemia
HOP-62 NSCLC = system: HOP-62 NSCLC
MDA-MB-231 breast = system: MDA-MB-231 breast
COLO 205 colon = system: COLO 205 colon
HT29 colon = system: HT29 colon
OVCAR-5 ovarian = system: OVCAR-5 ovarian
HCT-116 colon = system: HCT-116 colon
UACC-257 melanoma = system: UACC-257 melanoma
T-47D breast = system: T-47D breast
SK-OV-3 ovarian = system: SK-OV-3 ovarian
OVCAR-3 ovarian = system: OVCAR-3 ovarian
PC-3 prostate = system: PC-3 prostate
SR leukemia = system: SR leukemia
SW-620 colon = system: SW-620 colon
NCI-H226 lung = system: NCI-H226 lung
786-0 renal = system: 786-0 renal
SN12C renal = system: SN12C renal
KM12 colon = system: KM12 colon
A549 NSCLC = system: A549 NSCLC
NCI-H460 lung = system: NCI-H460 lung
RXF 393 renal = system: RXF 393 renal
HOP-92 NSCLC = system: HOP-92 NSCLC
SK-MEL-2 melanoma = system: SK-MEL-2 melanoma
MDA-MB-435 = system: MDA-MB-435
DU-145 prostate = system: DU-145 prostate
LOX IMVI melanoma = system: LOX IMVI melanoma
UO-31 renal = system: UO-31 renal
M14 melanoma = system: M14 melanoma
SF-268 CNS = system: SF-268 CNS
K-562 leukemia = system: K-562 leukemia
BT-549 breast = system: BT-549 breast
HS 578T breast = system: HS 578T breast
OVCAR-8 ovarian = system: OVCAR-8 ovarian
EKVX NSCLC = system: EKVX NSCLC
CAKI-1 renal = system: CAKI-1 renal
UACC-62 melanoma = system: UACC-62 melanoma
NCI-H23 lung = system: NCI-H23 lung
HCC-2998 colon = system: HCC-2998 colon
IGROV1 ovarian = system: IGROV1 ovarian
RPMI-8226 leukemia = system: RPMI-8226 leukemia
SK-MEL-5 melanoma = system: SK-MEL-5 melanoma
SF-539 CNS = system: SF-539 CNS
SNB-75 CNS = system: SNB-75 CNS
A498 renal = system: A498 renal
ACHN renal = system: ACHN renal
SK-MEL-28 melanoma = system: SK-MEL-28 melanoma
NCI-H522 lung = system: NCI-H522 lung
NCI/ADR-RES ovarian = system: NCI/ADR-RES ovarian
MCF7 breast = system: MCF7 breast

C[C@@H](NC(=O)c1ccc(F)cc1)c1ccc2c(c1)CCN2C(=O)C1CCOCC1
GI50 (CCRF-CEM leukemia): > 100 µM
TGI (CCRF-CEM leukemia): > 100 µM
GI50 (SF-295 CNS): > 100 µM
TGI (SF-295 CNS): > 100 µM
GI50 (HCT-15 colon): > 100 µM
TGI (HCT-15 colon): > 100 µM
GI50 (OVCAR-4 ovarian): > 100 µM
TGI (OVCAR-4 ovarian): > 100 µM
GI50 (MALME-3M melanoma): > 100 µM
TGI (MALME-3M melanoma): > 100 µM
GI50 (U251 CNS): > 100 µM
TGI (U251 CNS): > 100 µM
GI50 (HL-60(TB) leukemia): > 100 µM
TGI (HL-60(TB) leukemia): > 100 µM
GI50 (MOLT-4 leukemia): > 100 µM
TGI (MOLT-4 leukemia): > 100 µM
GI50 (HOP-62 NSCLC): > 100 µM
TGI (HOP-62 NSCLC): > 100 µM
GI50 (MDA-MB-231 breast): > 100 µM
TGI (MDA-MB-231 breast): > 100 µM
GI50 (COLO 205 colon): > 100 µM
TGI (COLO 205 colon): > 100 µM
GI50 (HT29 colon): > 100 µM
TGI (HT29 colon): > 100 µM
GI50 (OVCAR-5 ovarian): > 100 µM
TGI (OVCAR-5 ovarian): > 100 µM
GI50 (HCT-116 colon): > 100 µM
TGI (HCT-116 colon): > 100 µM
GI50 (UACC-257 melanoma): > 100 µM
TGI (UACC-257 melanoma): > 100 µM
GI50 (T-47D breast): > 100 µM
TGI (T-47D breast): > 100 µM
GI50 (SK-OV-3 ovarian): > 100 µM
TGI (SK-OV-3 ovarian): > 100 µM
GI50 (OVCAR-3 ovarian): > 100 µM
TGI (OVCAR-3 ovarian): > 100 µM
GI50 (PC-3 prostate): > 100 µM
TGI (PC-3 prostate): > 100 µM
GI50 (SR leukemia): > 100 µM
TGI (SR leukemia): > 100 µM
GI50 (SW-620 colon): > 100 µM
TGI (SW-620 colon): > 100 µM
GI50 (NCI-H226 lung): > 100 µM
TGI (NCI-H226 lung): > 100 µM
GI50 (786-0 renal): > 100 µM
TGI (786-0 renal): > 100 µM
GI50 (SN12C renal): > 100 µM
TGI (SN12C renal): > 100 µM
GI50 (KM12 colon): > 100 µM
TGI (KM12 colon): > 100 µM
GI50 (A549 NSCLC): > 100 µM
TGI (A549 NSCLC): > 100 µM
GI50 (NCI-H460 lung): > 100 µM
TGI (NCI-H460 lung): > 100 µM
GI50 (RXF 393 renal): > 100 µM
TGI (RXF 393 renal): > 100 µM
GI50 (HOP-92 NSCLC): > 100 µM
TGI (HOP-92 NSCLC): > 100 µM
GI50 (SK-MEL-2 melanoma): > 100 µM
TGI (SK-MEL-2 melanoma): > 100 µM
GI50 (MDA-MB-435): > 100 µM
TGI (MDA-MB-435): > 100 µM
GI50 (DU-145 prostate): > 100 µM
TGI (DU-145 prostate): > 100 µM
GI50 (LOX IMVI melanoma): > 100 µM
TGI (LOX IMVI melanoma): > 100 µM
GI50 (UO-31 renal): > 100 µM
TGI (UO-31 renal): > 100 µM
GI50 (M14 melanoma): > 100 µM
TGI (M14 melanoma): > 100 µM
GI50 (SF-268 CNS): > 100 µM
TGI (SF-268 CNS): > 100 µM
GI50 (K-562 leukemia): > 100 µM
TGI (K-562 leukemia): > 100 µM
GI50 (BT-549 breast): > 100 µM
TGI (BT-549 breast): > 100 µM
GI50 (HS 578T breast): > 100 µM
TGI (HS 578T breast): > 100 µM
GI50 (OVCAR-8 ovarian): > 100 µM
TGI (OVCAR-8 ovarian): > 100 µM
GI50 (EKVX NSCLC): > 100 µM
TGI (EKVX NSCLC): > 100 µM
GI50 (CAKI-1 renal): > 100 µM
TGI (CAKI-1 renal): > 100 µM
GI50 (UACC-62 melanoma): 93.5 µM
TGI (UACC-62 melanoma): > 100 µM
GI50 (NCI-H23 lung): > 100 µM
TGI (NCI-H23 lung): > 100 µM
GI50 (HCC-2998 colon): > 100 µM
TGI (HCC-2998 colon): > 100 µM
GI50 (IGROV1 ovarian): > 100 µM
TGI (IGROV1 ovarian): > 100 µM
GI50 (RPMI-8226 leukemia): > 100 µM
TGI (RPMI-8226 leukemia): > 100 µM
GI50 (SK-MEL-5 melanoma): > 100 µM
TGI (SK-MEL-5 melanoma): > 100 µM
GI50 (SF-539 CNS): > 100 µM
TGI (SF-539 CNS): > 100 µM
GI50 (SNB-75 CNS): 79.2 µM
TGI (SNB-75 CNS): > 100 µM
GI50 (A498 renal): 17.1 µM
TGI (A498 renal): 88.5 µM
GI50 (ACHN renal): > 100 µM
TGI (ACHN renal): > 100 µM
GI50 (SK-MEL-28 melanoma): > 100 µM
TGI (SK-MEL-28 melanoma): > 100 µM
GI50 (NCI-H522 lung): > 100 µM
TGI (NCI-H522 lung): > 100 µM
GI50 (NCI/ADR-RES ovarian): > 100 µM
TGI (NCI/ADR-RES ovarian): > 100 µM
GI50 (MCF7 breast): > 100 µM
TGI (MCF7 breast): > 100 µM
